EP4707280A1, “1,4-CINEOLE DERIVATIVE AND INTERMEDIATE THEREOF, HERBICIDE CONTAINING SAID DERIVATIVE AS ACTIVE INGREDIENT, METHOD FOR USING HERBICIDE, AND METHOD FOR PREPARING AGROCHEMICAL COMPOSITION” (HOKKO CHEMICAL INDUSTRY CO., LTD., priority 2023, dated 2024)

Experiments:
Type in all cases: in vivo
[1] = system: Echinochloa crus-galli var. formosensis; assay: Test Example 1: herbicidal effect test by soil application in paddy rice; settings: 120 g active ingredient per 10 ares, applied immediately after sowing, flooded pots, 14 days after application; for pest or weed control at 1200 g/ha: Echinochloa crus-galli, soil, 336 h, read-out: weed inhibition rate
Outline: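 Soil-applied test under flooded paddy conditions (~3 cm water) in a glass greenhouse. Seeds were sown shallow (0–1 cm, 30 per species), then compound was dripped in as diluted emulsifiable concentrate at 120 g a.i./10 a.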

[2] = system: Digitaria ciliaris; assay: Test Example 4: herbicidal effect test by stem and leaf treatment in upland field; settings: 120 g per 10 ares, sprayed seven days after sowing, upland soil, 14 days after application; for inhibition at 1200 g/ha: Digitaria ciliaris, read-out: weed inhibition rate
[3] = system: Echinochloa crus-galli var. formosensis; assay: Test Example 2: herbicidal effect test by application during growth period of paddy rice; settings: 120 g per 10 ares, applied seven days after sowing, flooded pots, 14 days after application; for inhibition at 1200 g/ha: Echinochloa crus-galli, read-out: weed inhibition rate
Outline: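 Herbicidal effect was scored 14 days after treatment, in duplicate per concentration. Weeds sown 0–1 cm deep in puddled, fertilized paddy soil under about 3 cm of standing water received a water-diluted emulsifiable concentrate by dropper 7 days post-sowing, at 120 g a.i. per 10 ares.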

[4] = system: Echinochloa crus-galli; assay: Test Example 4: herbicidal effect test by stem and leaf treatment in upland field; settings: 120 g per 10 ares, sprayed seven days after sowing, upland soil, 14 days after application; for inhibition at 1200 g/ha: Echinochloa crus-galli, read-out: weed inhibition rate
[5] = system: Digitaria ciliaris; assay: Test Example 3: herbicidal effect test by soil application in upland field; settings: 120 g per 10 ares, sprayed one day after sowing, 14 days after application; for inhibition at 1200 g/ha: Digitaria ciliaris, read-out: weed inhibition rate
Outline: (§1)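 Pre-emergence test: seeds mixed into top 1 cm of alluvial loam upland soil in pots; emulsifiable concentrate diluted in water sprayed on soil one day after sowing at 100 L/10 a, 120 g a.i./10 a. Weed inhibition rate (%) scored at 14 days, in duplicate.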

[6] = system: Echinochloa crus-galli; assay: as above; settings: 120 g per 10 ares, sprayed one day after sowing, 14 days after application; for inhibition at 1200 g/ha: Echinochloa crus-galli, read-out: weed inhibition rate
Outline: as §1

[7] = system: Echinochloa crus-galli var. formosensis; assay: Test Example 5: herbicidal effect test by soil application in paddy rice (low dose); settings: Echinochloa crus-galli, soil, 336 h; 7.5 g per 10 ares; applied immediately after sowing, flooded pots; 14 days after application; read-out: weed inhibition rate
Procedure: The present test was conducted in duplicate for each chemical concentration group, and the weed inhibition rate (%) was determined 14 days after chemical application using the following formula (Math. 1). [formula]
Wagner pots with an area of […] were filled with paddy soil, followed by addition of water and incorporation of chemical fertilizer (N:P:K = 16:16:16), after which puddling was performed. After that, seeds of Echinochloa crus-galli var. formosensis, broad-leaved weeds (Monochoria vaginalis), and Scirpus juncoides were sown at a depth of 0 cm to 1 cm, 30 seeds each. Immediately after sowing, the pots were flooded and a water depth of approximately 3 cm was maintained. Subsequent management was conducted in a glass greenhouse. Immediately thereafter, an emulsifiable concentrate prepared according to Formulation Example 5 using the compound shown below was diluted with water, and a specified amount of the diluted solution was applied by dropper. The amount of the active ingredient to be applied was equivalent to 7.5 g per 10 ares. […]

CC(C)C12CC(OCc3cccc(I)c3)C(C)(CC1Br)O2 (centres unmarked) [1-1365, 5-bromo-2-[(3-iodophenyl)methoxy]-1-methyl-4-isopropyl-7-oxabicyclo[2.2.1]heptane]
≥ 80%: pest or weed control at 1200 g/ha [1] | inhibition at 1200 g/ha [2] | inhibition at 1200 g/ha [3] | inhibition at 1200 g/ha [4] | inhibition at 1200 g/ha [5] | inhibition at 1200 g/ha [6]

CC(C)C12CC(OCc3ccccc3C(F)(F)F)C(C)(CC1Br)O2 (centres unmarked) [1-1367, 5-bromo-1-methyl-4-isopropyl-2-[[2-(trifluoromethyl)phenyl]methoxy]-7-oxabicyclo[2.2.1]heptane]
≥ 80%: pest or weed control at 1200 g/ha [1] | inhibition at 1200 g/ha [2] | inhibition at 1200 g/ha [3] | inhibition at 1200 g/ha [4] | inhibition at 1200 g/ha [5] | inhibition at 1200 g/ha [6]

CC(C)C12CC(OCc3ccccc3C#N)C(C)(CC1Br)O2 (centres unmarked) [1-1370, 2-[(5-bromo-1-methyl-4-isopropyl-7-oxabicyclo[2.2.1]heptan-2-yl)oxymethyl]benzonitrile]
≥ 80%: pest or weed control at 1200 g/ha [1] | inhibition at 1200 g/ha [2] | inhibition at 1200 g/ha [3] | inhibition at 1200 g/ha [4] | inhibition at 1200 g/ha [5] | inhibition at 1200 g/ha [6]

COC(=O)c1ccccc1COC1CC2(C(C)C)OC1(C)CC2Br (centres unmarked) [1-1376, methyl 2-[(5-bromo-1-methyl-4-isopropyl-7-oxabicyclo[2.2.1]heptan-2-yl)oxymethyl]benzoate]
≥ 80%: pest or weed control at 1200 g/ha [1] | inhibition at 1200 g/ha [2] | inhibition at 1200 g/ha [3] | inhibition at 1200 g/ha [4] | inhibition at 1200 g/ha [5] | inhibition at 1200 g/ha [6]

CC(C)C12CC(OCc3c(Cl)cccc3Cl)C(C)(CC1Br)O2 (centres unmarked) [1-1380, 5-bromo-2-[(2,6-dichlorophenyl)methoxy]-1-methyl-4-isopropyl-7-oxabicyclo[2.2.1]heptane]
≥ 80%: pest or weed control at 1200 g/ha [1] | inhibition at 1200 g/ha [2] | inhibition at 1200 g/ha [3] | inhibition at 1200 g/ha [4] | inhibition at 1200 g/ha [5] | inhibition at 1200 g/ha [6]

CC(C)C12CC(OCc3cccc4ccccc34)C(C)(CC1Br)O2 (centres unmarked) [1-1383, 5-bromo-1-methyl-2-(naphthalen-1-ylmethoxy)-4-isopropyl-7-oxabicyclo[2.2.1]heptane]
≥ 80%: pest or weed control at 1200 g/ha [1] | inhibition at 1200 g/ha [2] | inhibition at 1200 g/ha [3] | inhibition at 1200 g/ha [4] | inhibition at 1200 g/ha [5] | inhibition at 1200 g/ha [6]

CC(C)C12CC(OCc3ccc(Cl)cc3Cl)C(C)(CC1Br)O2 (centres unmarked) [1-1385, 5-bromo-2-[(2,4-dichlorophenyl)methoxy]-1-methyl-4-isopropyl-7-oxabicyclo[2.2.1]heptane]
≥ 80%: pest or weed control at 1200 g/ha [1] | inhibition at 1200 g/ha [2] | inhibition at 1200 g/ha [3] | inhibition at 1200 g/ha [4] | inhibition at 1200 g/ha [5] | inhibition at 1200 g/ha [6]

Cc1cccc(C)c1COC1CC2(C(C)C)OC1(C)CC2Br (centres unmarked) [1-1599, 5-bromo-2-[(2,6-dimethylphenyl)methoxy]-1-methyl-4-isopropyl-7-oxabicyclo[2.2.1]heptane]
≥ 80%: pest or weed control at 1200 g/ha [1] | inhibition at 1200 g/ha [2] | inhibition at 1200 g/ha [3] | inhibition at 1200 g/ha [4] | inhibition at 1200 g/ha [5] | inhibition at 1200 g/ha [6]

CC(C)[C@@]12C[C@H](OCc3c(F)cccc3Br)[C@@](C)(C[C@H]1I)O2 [1-1601, (1R,2S,4S,5R)-2-[(2-bromo-6-fluorophenyl)methoxy]-5-iodo-1-methyl-4-isopropyl-7-oxabicyclo[2.2.1]heptane]
≥ 80%: pest or weed control at 1200 g/ha [1] | inhibition at 1200 g/ha [2] | inhibition at 1200 g/ha [3] | inhibition at 1200 g/ha [4] | inhibition at 1200 g/ha [5] | inhibition at 1200 g/ha [6]

CC(C)[C@]12C[C@@H](OCc3ccccc3F)[C@](C)(C[C@@H]1OCC(F)(F)F)O2 [1-1605, (1S,2R,4R,5S)-2-[(2-fluorophenyl)methoxy]-1-methyl-4-isopropyl-5-(2,2,2-trifluoroethoxy)-7-oxabicyclo[2.2.1]heptane]
≥ 80%: pest or weed control at 1200 g/ha [1] | inhibition at 1200 g/ha [2] | inhibition at 1200 g/ha [3] | inhibition at 1200 g/ha [4] | inhibition at 1200 g/ha [5] | inhibition at 1200 g/ha [6]

CC(C)[C@]12C[C@@H](OCc3ccccc3F)[C@](C)(C[C@@H]1OCc1ccccc1)O2 [1-1606, (1S,2R,4R,SS)-2-[(2-fluorophenyl)methoxy]-1-methyl-5-phenylmethoxy-4-isopropyl-7-oxabicyclo[2.2.1]heptane]
≥ 80%: weed inhibition rate [1] | weed inhibition rate [2] | weed inhibition rate [3] | weed inhibition rate [4] | weed inhibition rate [5] | weed inhibition rate [6]

Cc1cccc(C)c1CO[C@H]1C[C@@]2(C(C)C)O[C@]1(C)C[C@H]2Br [1-1608, (1R,2S,4S,5R)-5-bromo-2-[(2,6-dimethylphenyl)methoxy]-1-methyl-4-isopropyl-7-oxabicyclo[2.2.1]heptane]
≥ 80%: pest or weed control at 1200 g/ha [1] | inhibition at 1200 g/ha [2] | inhibition at 1200 g/ha [3] | inhibition at 1200 g/ha [4] | inhibition at 1200 g/ha [5] | inhibition at 1200 g/ha [6]

CC(C)[C@@]12C[C@H](OCc3c(F)cccc3Br)[C@@](C)(C[C@H]1Br)O2 [1-1609, (1R,2S,4S,5R)-5-bromo-2-[(2-bromo-6-fluorophenyl)methoxy]-1-methyl-4-isopropyl-7-oxabicyclo[2.2.1]heptane]
≥ 80%: pest or weed control at 1200 g/ha [1] | inhibition at 1200 g/ha [2] | inhibition at 1200 g/ha [3] | inhibition at 1200 g/ha [4] | inhibition at 1200 g/ha [5] | inhibition at 1200 g/ha [6]

COc1ccccc1CO[C@@H]1C[C@]2(C(C)C)O[C@@]1(C)CC2=O [2-7, (1R,4S,5R)-1-isopropyl-5-((2-methoxybenzyl)oxy)-4-methyl-7-oxabicyclo[2.2.1]heptan-2-one]
≥ 80%: pest or weed control at 1200 g/ha [1] | inhibition at 75 g/ha [7] | inhibition at 1200 g/ha [2] | inhibition at 1200 g/ha [3] | inhibition at 1200 g/ha [4]

CC(C)[C@]12C[C@@H](OCc3ccccc3OC(F)(F)F)[C@](C)(CC1=O)O2 [2-348, (1R,4S,5R)-1-isopropyl-4-methyl-5-((2-(trifluoromethoxy)benzyl)oxy)-7-oxabicyclo[2.2.1]heptan-2-one]
≥ 80%: pest or weed control at 1200 g/ha [1] | inhibition at 1200 g/ha [2] | inhibition at 1200 g/ha [3] | inhibition at 1200 g/ha [4] | inhibition at 1200 g/ha [5] | inhibition at 1200 g/ha [6]
